Where two headings read alike, the source gives them in different places.
What was measured:
[1] = biological target: T1, HCV NS5B polymerase 1a-H77 (Hepatitis C virus genotype 1a, UniProt P27958); assay: biochemical; parameters: species or system HCV genotype 1a; conditions: enzyme, strain 1a H77; read-out: HCV Polymerase Strain 1a H77 IC50
T1 construct: six-histidine tag; made in house; host or cells: E. coli
In short: (§1)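 Recombinant NS5B (residues 1–570, His-tagged, E. coli-expressed) copied 5 nM of a 2.1 kb HCV 1b negative-strand 3′-end RNA template with 20 μM CTP, 20 μM ATP and 0.284 μM [3H]UTP for 3 h at 30 °C. Spermine-precipitated RNA was filter-captured and counted, and IC50 was fitted by nonlinear regression.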

[2] = biological target: T2, HCV NS5B polymerase 1a-H77-C316Y (Hepatitis C virus genotype 1a, UniProt P27958, C2736Y); assay: biochemical; parameters: species or system HCV genotype 1a
T2 construct: six-histidine tag; made in house; host or cells: E. coli
T2 sequence (P27958 2421-2990 C2736Y): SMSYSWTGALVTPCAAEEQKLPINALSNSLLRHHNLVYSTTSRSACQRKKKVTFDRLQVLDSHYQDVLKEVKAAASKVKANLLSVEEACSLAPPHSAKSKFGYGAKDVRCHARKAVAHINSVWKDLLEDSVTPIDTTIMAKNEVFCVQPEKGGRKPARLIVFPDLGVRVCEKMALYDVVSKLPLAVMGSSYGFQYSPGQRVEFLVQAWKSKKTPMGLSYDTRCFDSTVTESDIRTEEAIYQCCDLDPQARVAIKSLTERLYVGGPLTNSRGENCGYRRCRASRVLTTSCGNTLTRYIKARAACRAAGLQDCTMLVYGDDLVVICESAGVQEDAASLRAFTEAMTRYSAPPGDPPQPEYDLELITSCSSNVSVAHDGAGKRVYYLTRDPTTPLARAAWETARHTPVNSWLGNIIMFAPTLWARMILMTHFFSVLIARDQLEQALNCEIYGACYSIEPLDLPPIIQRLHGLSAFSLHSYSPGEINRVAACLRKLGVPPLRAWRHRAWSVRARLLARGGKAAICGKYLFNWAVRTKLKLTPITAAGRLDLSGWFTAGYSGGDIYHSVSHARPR
In short: as §1

[3] = tested on: HCV NS5B polymerase 1a-H77-C316Y; assay: biochemical; parameters: species or system HCV genotype 1a; conditions: ratio of enzyme IC50s, 1a H77-C316Y / 1a H77
In short: as §1

[4] = biological target: T3, HCV NS5B polymerase 1b BK strain (Hepatitis C virus genotype 1b, UniProt P26663); assay: HCV NS5B polymerase enzymatic inhibition assay, strain 1b BK; type: biochemical; conditions: enzyme, strain 1b BK; read-out: HCV Polymerase Strain 1b BK IC50
T3 construct: six-histidine tag; made in house; host or cells: E. coli
T3 sequence (P26663 2420-2989): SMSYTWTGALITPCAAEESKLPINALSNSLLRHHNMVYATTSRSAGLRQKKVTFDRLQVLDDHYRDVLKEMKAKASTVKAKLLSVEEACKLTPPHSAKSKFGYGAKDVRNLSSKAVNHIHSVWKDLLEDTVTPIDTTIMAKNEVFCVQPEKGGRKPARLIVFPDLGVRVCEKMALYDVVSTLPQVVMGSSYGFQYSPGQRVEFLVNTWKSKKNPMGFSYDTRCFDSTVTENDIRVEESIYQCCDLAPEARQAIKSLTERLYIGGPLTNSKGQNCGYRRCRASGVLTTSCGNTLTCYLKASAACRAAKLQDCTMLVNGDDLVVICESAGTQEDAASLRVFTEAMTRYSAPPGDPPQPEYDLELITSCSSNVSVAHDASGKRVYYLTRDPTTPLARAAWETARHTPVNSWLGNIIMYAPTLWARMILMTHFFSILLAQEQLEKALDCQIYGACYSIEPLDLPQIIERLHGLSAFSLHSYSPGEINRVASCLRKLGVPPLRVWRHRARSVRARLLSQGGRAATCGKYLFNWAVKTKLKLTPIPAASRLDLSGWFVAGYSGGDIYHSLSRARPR
In short: as §1

[5] = tested on: HCV 1a-H77 subgenomic replicon; assay: microbe, parasite or virus in culture; type: cell-based, HCV genotype 1a; conditions: Hepatitis C virus, stable replicon
[6] = tested on: HCV 1b-BB7 subgenomic replicon; assay: microbe, parasite or virus in culture; type: cell-based, HCV genotype 1b; conditions: Hepatitis C virus, stable replicon
[7] = tested on: chimeric replicon with 2a-J6CF-derived NS5B; assay: microbe, parasite or virus in culture; type: cell-based, HCV genotype 2a; conditions: Hepatitis C virus, read-out: 2a chimera 5% FBS EC50
[8] = tested on: chimeric replicon with genotype 2b NS5B; assay: microbe, parasite or virus in culture; type: cell-based, HCV genotype 2b; conditions: Hepatitis C virus, read-out: 2b chimera 5% FBS EC50
[9] = tested on: chimeric replicon with genotype 3a NS5B; assay: microbe, parasite or virus in culture; type: cell-based, HCV genotype 3a; conditions: Hepatitis C virus, read-out: 3a chimera 5% FBS EC50
[10] = tested on: chimeric replicon with genotype 4a NS5B; assay: microbe, parasite or virus in culture; type: cell-based, HCV genotype 4a; conditions: Hepatitis C virus, read-out: 4a chimera 5% FBS EC50
[11] = tested on: HCV 1a-H77 transient subgenomic replicon in Huh-7 derived cell line; assay: microbe, parasite or virus in culture; type: cell-based, HCV genotype 1a; conditions: Hepatitis C virus, Huh-7; transient replicon, 5% FBS; read-out: Transient Replicon 1a H77 5% FBS EC50
In short: (§2)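 Subgenomic replicon RNA (no Neo gene) electroporated into Huh-7-derived cells, plated at 5×10^3 cells/well; a 4 h plate gauged transfection efficiency. Cells exposed to 3-fold compound dilutions (0.5% DMSO) for 4 days at 37° C, then lysed for luciferase readout; EC50 calculated.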

[12] = tested on: HCV 1a-H77-C316Y transient subgenomic replicon in Huh-7 derived cell line; assay: microbe, parasite or virus in culture; type: cell-based, HCV genotype 1a; conditions: for EC50: Hepatitis C virus, Huh-7, read-out: Transient Replicon 1a H77-C316Y 5% FBS EC50; for Transient Replicon Fold Resistance C316Y/1a: ratio of transient replicon EC50s, C316Y / 1a H77
In short: as §2

[13] = 5% FBS, absence of human plasma, read-out: Stable Replicon 1a H77 5% FBS EC50
[14] = strain 1a H77, 5% FBS + 40% human plasma, read-out: 1a H77 5% FBS + 40% Human Plasma EC50
[15] = strain 1a H77, 5% FBS, no human plasma, read-out: 1a H77 5% FBS EC50
[16] = strain 1a H77, 5% FBS, read-out: 1a H77 5% FBS EC50
[17] = strain 1b BB7, 5% FBS + 40% human plasma, read-out: 1b BB7 5% FBS + 40% Human Plasma EC50
[18] = strain 1b BB7, 5% FBS, no human plasma, read-out: 1b BB7 5% FBS EC50
[19] = strain 1b BB7, 5% FBS, read-out: 1b BB7 5% FBS EC50

T1 sequence (P27958 2421-2990): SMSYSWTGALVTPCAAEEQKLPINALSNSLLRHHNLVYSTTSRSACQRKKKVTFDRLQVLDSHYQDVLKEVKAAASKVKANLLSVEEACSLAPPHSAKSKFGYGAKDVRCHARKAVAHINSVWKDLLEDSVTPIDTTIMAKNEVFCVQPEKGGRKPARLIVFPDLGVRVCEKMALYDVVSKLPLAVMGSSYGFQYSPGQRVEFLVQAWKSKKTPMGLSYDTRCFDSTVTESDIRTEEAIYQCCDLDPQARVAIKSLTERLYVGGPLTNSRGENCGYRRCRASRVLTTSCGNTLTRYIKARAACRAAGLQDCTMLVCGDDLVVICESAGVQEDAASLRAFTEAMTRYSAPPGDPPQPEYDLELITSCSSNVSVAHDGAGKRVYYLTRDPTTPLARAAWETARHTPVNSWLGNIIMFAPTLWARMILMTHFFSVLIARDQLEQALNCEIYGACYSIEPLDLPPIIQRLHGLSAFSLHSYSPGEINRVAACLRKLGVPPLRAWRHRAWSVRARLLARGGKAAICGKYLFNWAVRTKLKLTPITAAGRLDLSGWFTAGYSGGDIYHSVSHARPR

| Structure (SMILES) | IC50 [1] [nM] | IC50 [2] [nM] | C316Y/1a Fold Resistance [3] [fold] | IC50 [4] [nM] | EC50 [5, 13] [nM] | EC50 [5, 14] [nM] | EC50 [5, 15] [nM] | EC50 [5, 16] [nM] | EC50 [6, 17] [nM] | EC50 [6, 18] [nM] | EC50 [6, 19] [nM] | EC50 [7] [nM] | EC50 [8] [nM] | EC50 [9] [nM] | EC50 [10] [nM] | EC50 [11] [nM] | EC50 [12] [nM] | Transient Replicon Fold Resistance C316Y/1a [12] [fold] |
| --- | --- | --- | --- | --- | --- | --- | --- | --- | --- | --- | --- | --- | --- | --- | --- | --- | --- | --- |
| CS(=O)(=O)N(CCCS(N)(=O)=O)c1cc2oc(-c3ccc(F)cc3)c(C3=NOCCN3)c2cc1C1CC1 [Example 124, 3-{[5-cyclopropyl-3-(5,6-dihydro-4H-1,2,4-oxadiazin-3-yl)-2-(4-fluorophenyl)-1-benzofuran-6-yl](methylsulfonyl)amino}propane-1-sulfonamide] | 4.5 | 37 | 8 | 29 | 44.3 | 501 | 44.3 | 44.3 | 984 | 44 | 44 | 1000 | 1000 | 139 | 962 | 33.4 | 276 | 8 |
| CS(=O)(=O)N(CCCN1CCOCC1)c1cc2oc(-c3ccc(F)cc3)c(C3=NOCCN3)c2cc1C1CC1 [Example 126, N-[5-cyclopropyl-3-(5,6-dihydro-4H-1,2,4-oxadiazin-3-yl)-2-(4-fluorophenyl)-1-benzofuran-6-yl]-N-[3-(morpholin-4-yl)propyl]methanesulfonamide] | 21.5 | 91 | 4 | 111 | 25.3 | 258 | 25.3 | 25.3 | 379 | 30 | 30 | 350 | 453 | 70 | 360 | 33.6 | 260 | 8 |
| CS(=O)(=O)N(CCCO)c1cc2oc(-c3ccc(F)cc3)c(C3=NOCCN3)c2cc1C1CC1 [Example 137, N-[5-cyclopropyl-3-(5,6-dihydro-4H-1,2,4-oxadiazin-3-yl)-2-(4-fluorophenyl)-1-benzofuran-6-yl]-N-(3-hydroxypropyl)methanesulfonamide] | 4.2 | 39 | 9 | 79 | 15 | 59 | 15 | 15 | 113 | 17 | 17 | 182 | 214 | 33 | 172 | 10.1 | 107 | 11 |
| COc1ccc(CN(c2cc3oc(-c4ccc(F)cc4)c(C4=NOCN4)c3cc2C2CC2)S(C)(=O)=O)cc1 [Example 145, N-[5-cyclopropyl-3-(4,5-dihydro-1,2,4-oxadiazol-3-yl)-2-(4-fluorophenyl)-1-benzofuran-6-yl]-N-(4-methoxybenzyl)methanesulfonamide] | 6 | 2000 | 333 | 35 | 134 | 1000 | 134 | 134 | 1000 | 80 | 80 | 372 | 836 | 163 | > 1000 | 100 | 1000 | 10 |
| CC(C)(O)C(O)CCN(c1cc2oc(-c3ccc(F)cc3)c(C3=NOCN3)c2cc1C1CC1)S(C)(=O)=O (stereo not drawn) [Example 146, N-[5-cyclopropyl-3-(4,5-dihydro-1,2,4-oxadiazol-3-yl)-2-(4-fluorophenyl)-1-benzofuran-6-yl]-N-(3,4-dihydroxy-4-methylpentyl)methanesulfonamide] | 4.9 | 45 | 9 | 25 | 12.6 | 1660 | 12.6 | 12.6 | 2710 | 17.9 | 17.9 | 179 | 169 | 17 | 277 | 11.2 | 237 | 21 |
| CS(=O)(=O)N(CCCCCO)c1cc2oc(-c3ccc(F)cc3)c(C3=NOCN3)c2cc1C1CC1 [Example 147, N-[5-cyclopropyl-3-(4,5-dihydro-1,2,4-oxadiazol-3-yl)-2-(4-fluorophenyl)-1-benzofuran-6-yl]-N-(5-hydroxypentyl)methanesulfonamide] | 3.5 | 49 | 14 | 9 | 8.9 | 1710 | 8.9 | 8.9 | 1830 | 9.8 | 9.8 | 84.8 | 62 | 10.3 | 65.9 | 9.7 | 77.8 | 8 |
| CS(=O)(=O)CCCCN(c1cc2oc(-c3ccc(F)cc3)c(C3=NOCN3)c2cc1C1CC1)S(C)(=O)=O [Example 148, N-[5-cyclopropyl-3-(4,5-dihydro-1,2,4-oxadiazol-3-yl)-2-(4-fluorophenyl)-1-benzofuran-6-yl]-N-[4-(methylsulfonyl)butyl]methanesulfonamide] | 3.9 | 30 | 8 | 6 | 4.1 | 1290 | 4.1 | 4.1 | 688 | 4 | 4 | 45.8 | 32 | 8.2 | 39.7 | 5.2 | 109 | 21 |
